Source: patent US7994172B2, “[1H-pyrazolo[3, 4-D]pyrimidin-4-yl]-piperidine or -piperazine compounds as serine-theoronine kinase modulators (P70s6k, Atk1 and Atk2) for the treatment of immunological, inflammatory and proliferative diseases” (Exelixis, Inc., priority 2004, dated 2011)

Experiments:
[1] = target: T1, human p70S6 kinase (p70S6K, kinase domain residues 1-421, T412E mutation) (Homo sapiens, UniProt P23443, T412E); experiment: p70S6 kinase assay, Luciferase-Coupled Chemiluminescent Kinase assay (LCCA); format: biochemical; conditions: 5 μM ATP, 12 nM p70S6K; read-out: p70S6K inhibition IC50
T1 construct: human p70S6 kinase domainresidues 1-421, containing a T412E mutation; made in house
Description: (§1) Kinase activity and compound inhibition are investigated using one or more of the three assay formats described below. The ATP concentrations for each assay are selected to be close to the Michaelis-Menten constant (KM) for each individual kinase. Dose-response experiments are performed at 10 different inhibitor concentrations in a 384-well plate format. The data are fitted to four-parameter equation (2) below; where Y is the observed signal, X is the inhibitor concentration, Min is the background signal in the absence of enzyme (0% enzyme activity), Max is the signal in the absence of inhibitor (100% enzyme activity), IC50 is the inhibitor concentration at 50% enzyme inhibition and H represents the empirical Hill's slope to measure the cooperativity. Typically H is close to unity. Y=Min+(Max−Min)/(1+(X/IC50)^H) Equation (2) p70S6 Kinase Assay
Biochemical activity of p70S6 kinase was assessed using a Luciferase-Coupled Chemiluminescent Kinase assay (LCCA) format. Kinase activity was measured as the percent ATP remaining following the kinase reaction. Remaining ATP was detected by luciferase-luciferin-coupled chemiluminescence. Specifically, the reaction was initiated by mixing test compounds, 5 μM ATP, 5 μM RRRLSSLRA peptide and 12 nM p70S6K (baculovirus expressed human p70S6 kinase domainresidues 1-421, containing a T412E mutation) in a 20 uL assay buffer (20 mM Tris-HCL pH 7.5, 10 mM MgCl2, 0.02% Triton X-100, 100 mM DTT, 2 mM MnCl2). The mixture is incubated at ambient temperature for 2 hours after which 20 μL luciferase-luciferin mix is added and the chemiluminescent signal read using a Wallac Victor^2 reader. The luciferase-luciferin mix consists of 50 mM HEPES, pH 7.8, 8.5 μg/mL oxalic acid (pH 7.8), 5 (or 50) mM DTT, 0.4% Triton X-100, 0.25 mg/mL coenzyme A, 63 uM AMP, 28 μg/mL luciferin and 40,000 units/mL luciferase.

[2] = target: T2, human Akt1 kinase (kinase domain residues R144-A480, activated with PDK1) (Homo sapiens, UniProt P31749); experiment: Akt1 kinase assay, Luciferase-Coupled Chemiluminescent Kinase assay (LCCA); format: biochemical; conditions: 1 μM ATP, 1.3 nM Akt1; read-out: Akt-1 inhibition IC50
T2 construct: made in house
Description: as §1
Biochemical activity of Akt1 kinase was assessed using a Luciferase-Coupled Chemiluminescent Kinase assay (LCCA) format. Kinase activity was measured as the percent ATP remaining following the kinase reaction. Remaining ATP was detected by luciferase-luciferin-coupled chemiluminescence. Specifically, the reaction was initiated by mixing test compounds, 1 μM ATP, 5 μM crosstide peptide and 1.3 nM Akt1 (baculovirus expressed human Akt1 kinase domain residues R144-A480, activated with PDK1) in a 20 uL assay buffer (20 mM Tris-HCL pH 7.5, 10 mM MgCl2, 0.01% Triton X-100, 1 mM DTT, 3 mM MnCl2). The mixture is incubated at ambient temperature for 3 hours after which 20 μL luciferase-luciferin mix is added and the chemiluminescent signal read using a Wallac Victor2 reader. The luciferase-luciferin mix consists of 50 mM HEPES, pH 7.8, 8.5 μg/mL oxalic acid (pH 7.8), 5 (or 50) mM DTT, 0.4% Triton X-100, 0.25 mg/mL coenzyme A, 63 uM AMP, 28 μg/mL luciferin and 40,000 units/mL luciferase.

T2 sequence (P31749 144-480): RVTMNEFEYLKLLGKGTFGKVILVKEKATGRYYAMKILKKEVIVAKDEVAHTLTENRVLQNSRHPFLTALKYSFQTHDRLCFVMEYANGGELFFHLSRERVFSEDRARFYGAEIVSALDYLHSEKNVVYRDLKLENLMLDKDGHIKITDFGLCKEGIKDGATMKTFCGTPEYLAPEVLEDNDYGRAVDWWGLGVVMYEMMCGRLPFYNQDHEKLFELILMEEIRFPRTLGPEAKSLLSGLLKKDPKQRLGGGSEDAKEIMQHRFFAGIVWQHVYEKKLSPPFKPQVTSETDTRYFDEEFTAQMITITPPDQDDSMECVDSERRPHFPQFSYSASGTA
T1 sequence (P23443 1-421 T412E): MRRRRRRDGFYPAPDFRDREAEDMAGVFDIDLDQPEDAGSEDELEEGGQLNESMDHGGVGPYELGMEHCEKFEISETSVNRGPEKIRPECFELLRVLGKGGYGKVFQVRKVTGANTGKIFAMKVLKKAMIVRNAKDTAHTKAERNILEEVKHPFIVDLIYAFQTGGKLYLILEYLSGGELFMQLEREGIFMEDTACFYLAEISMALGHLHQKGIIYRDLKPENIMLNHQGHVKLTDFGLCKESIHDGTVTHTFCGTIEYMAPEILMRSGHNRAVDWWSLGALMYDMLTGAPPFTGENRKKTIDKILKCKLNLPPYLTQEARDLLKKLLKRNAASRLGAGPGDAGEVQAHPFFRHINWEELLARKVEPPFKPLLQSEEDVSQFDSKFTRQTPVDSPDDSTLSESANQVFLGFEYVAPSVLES

Row | Structure (SMILES) | IC50 [1] [nM] | IC50 [2] [nM]
1 | Clc1ccc(CC2CCN(c3ncnc4[nH]nc(Br)c34)CC2)cc1Cl [Entry 40, 3-bromo-4-{4-[(3,4-dichlorophenyl)methyl]piperidin-1-yl}-1H-pyrazolo[3,4-d]pyrimidine] | < 50 | > 2000
2 | COC(=O)c1ccc(CN2CCN(c3ncnc4[nH]nc(Br)c34)CC2)cc1 [Entry 42, methyl 4-{[4-(3-bromo-1H-pyrazolo[3,4-d]pyrimidin-4-yl)piperazin-1-yl]methyl}benzoate] | < 50 | > 2000
3 | CCN(CC)CCCNC(=O)C1(Cc2ccc(Cl)cc2)CCN(c2ncnc3[nH]nc(Br)c23)CC1 [Entry 44, 1-(3-bromo-1H-pyrazolo[3,4-d]pyrimidin-4-yl)-4-[(4-chlorophenyl)methyl]-N-[3-(diethylamino)propyl]piperidine-4-carboxamide] | < 50 | 50 to 500
4 | CCN(CC)CCCNC(=O)C1(c2ccc(Cl)cc2)CCN(c2ncnc3[nH]nc(Br)c23)CC1 [Entry 49, 1-(3-bromo-1H-pyrazolo[3,4-d]pyrimidin-4-yl)-4-(4-chlorophenyl)-N-[3-(diethylamino)propyl]piperidine-4-carboxamide] | < 50 | 500 to 2000
5 | Clc1ccc(NC2CCN(c3ncnc4[nH]nc(Br)c34)CC2)cc1 [Entry 59, 1-(3-bromo-1H-pyrazolo[3,4-d]pyrimidin-4-yl)-N-(4-chlorophenyl)piperidin-4-amine] | 50 to 500 | > 2000
6 | O=[N+]([O-])c1cc(CN2CCN(c3ncnc4[nH]nc(Br)c34)CC2)ccc1Oc1ccc(F)cc1 [Entry 65, 3-bromo-4-[4-({4-[(4-fluorophenyl)oxy]-3-nitrophenyl}methyl)piperazin-1-yl]-1H-pyrazolo[3,4-d]pyrimidine] | 500 to 2000 | > 2000
7 | Clc1cc(CN2CCN(c3ncnc4[nH]nc(Br)c34)CC2)ccc1OCc1ccccc1 [Entry 80, 3-bromo-4-[4-({3-chloro-4-[(phenylmethyl)oxy]phenyl}methyl)piperazin-1-yl]-1H-pyrazolo[3,4-d]pyrimidine] | > 2000 | > 2000
8 | O=C(NCCCN1CCOCC1)c1ccc(CN2CCN(c3ncnc4[nH]nc(Br)c34)CC2)cc1 [Entry 81, 4-{[4-(3-bromo-1H-pyrazolo[3,4-d]pyrimidin-4-yl)piperazin-1-yl]methyl}-N-(3-morpholin-4-ylpropyl)benzamide] | > 2000 | > 2000
9 | COCCCNC(=O)c1ccc(CN2CCN(c3ncnc4[nH]nc(Br)c34)CC2)cc1 [Entry 82, 4-{[4-(3-bromo-1H-pyrazolo[3,4-d]pyrimidin-4-yl)piperazin-1-yl]methyl}-N-[3-(methyloxy)propyl]benzamide] | > 2000 | > 2000
10 | CN(C)CCOCC1CN(c2ncnc3[nH]nc(Br)c23)CCN1Cc1ccc(Cl)cc1 (centres unmarked) [Entry 83, 2-[({4-(3-bromo-1H-pyrazolo[3,4-d]pyrimidin-4-yl)-1-[(4-chlorophenyl)methyl]piperazin-2-yl}methyl)oxy]-N,N-dimethylethanamine] | > 2000 | > 2000
11 | O=[N+]([O-])c1cc(CN2CCN(c3ncnc4[nH]nc(Br)c34)CC2)ccc1Oc1ccc(Cl)cc1 [Entry 84, 3-bromo-4-[4-({4-[(4-chlorophenyl)oxy]-3-nitrophenyl}methyl)piperazin-1-yl]-1H-pyrazolo[3,4-d]pyrimidine] | > 2000 | > 2000
12 | CN(C)CCO[C@@H](c1ccc(Cl)cc1)C1CCN(c2ncnc3[nH]nc(Br)c23)CC1 [Entry 86, 2-{[(R)-[1-(3-bromo-1H-pyrazolo[3,4-d]pyrimidin-4-yl)piperidin-4-yl](4-chlorophenyl)methyl]oxy}-N,N-dimethylethanamine] | < 50 | < 50
13 | CN(C)CCNC(=O)N(c1ccc(Br)c(F)c1)C1CCN(c2ncnc3[nH]nc(Br)c23)CC1 [Entry 87, N-(4-bromo-3-fluorophenyl)-N-[1-(3-bromo-1H-pyrazolo[3,4-d]pyrimidin-4-yl)piperidin-4-yl]-N′-[2-(dimethylamino)ethyl]urea] | < 50 | < 50
